Experimental data reported in PubChem BioAssay AID1963431 (Molecular Pharmacology Branch, DTP, NCI, 2024).

Test system: Rh18 complex spheroid viability, percent test/control
Experiment: Anticancer human tumor Rh18 cell line growth inhibition [Asc];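 also: spheroids exposed to compound for 7 days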;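 as to viability, T/C: 100% = DMSO vehicle control wells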
Conditions: for IC50: curve of first compound; for viability, T/C: stronger effect = lower value
Procedure, shortened: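 Concentration series start at each agent's clinical Cmax, or at 10 microM when none is established, and drop in half-log steps; agents are applied alone or together to complex spheroids built with HUVEC and hMSC.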

[1] = second compound 0.01 µM, first compound 0.0316 µM
[2] = second compound 0.01 µM, first compound 0.1 µM
[3] = second compound 0.01 µM, first compound 0.316 µM
[4] = second compound 0.01 µM, first compound 1 µM
[5] = second compound 0.0316 µM, first compound 0.0316 µM
[6] = second compound 0.0316 µM, first compound 0.1 µM
[7] = second compound 0.0316 µM, first compound 0.316 µM
[8] = second compound 0.0316 µM, first compound 1 µM
[9] = second compound 0.1 µM, first compound 0.0316 µM
[10] = second compound 0.1 µM, first compound 0.1 µM
[11] = second compound 0.1 µM, first compound 0.316 µM
[12] = second compound 0.1 µM, first compound 1 µM
[13] = second compound 0.316 µM, first compound 0.0316 µM
[14] = second compound 0.316 µM, first compound 0.1 µM
[15] = second compound 0.316 µM, first compound 0.316 µM
[16] = second compound 0.316 µM, first compound 1 µM
[17] = second compound 1 µM, first compound 0.0316 µM
[18] = second compound 1 µM, first compound 0.1 µM
[19] = second compound 1 µM, first compound 0.316 µM
[20] = second compound 1 µM, first compound 1 µM

Q: Which IC50 (second compound 0.01 µM) does the source give for C=CC(=O)N1CCN(c2nc(=O)n(-c3c(C)ccnc3C(C)C)c3nc(-c4c(O)cccc4F)c(F)cc23)C(C)C1 (stereo not given) + CNC(C)C(=O)NC1CN(S(=O)(=O)c2cccc(S(=O)(=O)N3CCC4CCC(C(=O)NC(c5ccccc5)c5ccccc5)N4C(=O)C(NC(=O)C(C)NC)C3)c2)CCC2CCC(C(=O)NC(c3ccccc3)c3ccccc3)N2C1=O here?
A: > 10 µM

Q: What about the IC50 (second compound 0.0316 µM) of the same compound?
A: 4.45 µM

Q: And the IC50 (second compound 0.1 µM)?
A: 0.061 µM

Q: And the IC50 (second compound 0.316 µM)?
A: < 0.0316 µM

Q: What about the IC50 (second compound 1 µM) of the same compound?
A: < 0.0316 µM

Q: What about the viability, T/C [1] of the same compound?
A: 61.6%

Q: What about the viability, T/C [2] of the same compound?
A: 63.6%

Q: What about the viability, T/C [3] of the same compound?
A: 56%

Q: And the viability, T/C [4]?
A: 51.8%

Q: And the viability, T/C (second compound 0.01 µM, first compound 3.16 µM)?
A: 59.8%

Q: And the viability, T/C (second compound 0.01 µM, first compound 10 µM)?
A: 61.1%

Q: And the viability, T/C [5]?
A: 52.4%

Q: What about the viability, T/C [6] of the same compound?
A: 54.8%

Q: And the viability, T/C [7]?
A: 61.9%

Q: What about the viability, T/C [8] of the same compound?
A: 46.2%

Q: And the viability, T/C (second compound 0.0316 µM, first compound 3.16 µM)?
A: 60.7%

Q: And the viability, T/C (second compound 0.0316 µM, first compound 10 µM)?
A: 37.8%

Q: And the viability, T/C [9]?
A: 49.4%

Q: And the viability, T/C [10]?
A: 52%

Q: And the viability, T/C [11]?
A: 48.6%

Q: And the viability, T/C [12]?
A: 43.1%

Q: And the viability, T/C (second compound 0.1 µM, first compound 3.16 µM)?
A: 46.4%

Q: What about the viability, T/C (second compound 0.1 µM, first compound 10 µM) of the same compound?
A: 43.6%

Q: What about the viability, T/C [13] of the same compound?
A: 43.1%

Q: What about the viability, T/C [14] of the same compound?
A: 41.3%

Q: What about the viability, T/C [15] of the same compound?
A: 41.2%

Q: What about the viability, T/C [16] of the same compound?
A: 43.9%

Q: And the viability, T/C (second compound 0.316 µM, first compound 3.16 µM)?
A: 52.5%

Q: What about the viability, T/C (second compound 0.316 µM, first compound 10 µM) of the same compound?
A: 45.4%

Q: What about the viability, T/C [17] of the same compound?
A: 44.1%

Q: What about the viability, T/C [18] of the same compound?
A: 45%

Q: And the viability, T/C [19]?
A: 46.4%

Q: And the viability, T/C [20]?
A: 40%

Q: What about the viability, T/C (second compound 1 µM, first compound 3.16 µM) of the same compound?
A: 35.4%

Q: What about the viability, T/C (second compound 1 µM, first compound 10 µM) of the same compound?
A: 35.9%

Q: What does the source list for COc1c(OCCCN2CCOCC2)ccc2c3n(c(=NC(=O)c4cnc(N)nc4)nc12)CCN3 + CNC(C)C(=O)NC1CN(S(=O)(=O)c2cccc(S(=O)(=O)N3CCC4CCC(C(=O)NC(c5ccccc5)c5ccccc5)N4C(=O)C(NC(=O)C(C)NC)C3)c2)CCC2CCC(C(=O)NC(c3ccccc3)c3ccccc3)N2C1=O?
A: IC50 (second compound 0.01 µM): 0.0041 µM; IC50 (second compound 0.0316 µM): < 0.00316 µM; IC50 (second compound 0.1 µM): < 0.00316 µM; IC50 (second compound 0.316 µM): < 0.00316 µM; IC50 (second compound 1 µM): < 0.00316 µM; viability, T/C (second compound 0.01 µM, first compound 0.00316 µM): 56.5%; viability, T/C (second compound 0.01 µM, first compound 0.01 µM): 28.1%; viability, T/C [1]: 13.5%; viability, T/C [2]: 5.19%; viability, T/C [3]: 1.61%; viability, T/C [4]: 0.4%; viability, T/C (second compound 0.0316 µM, first compound 0.00316 µM): 38.4%; viability, T/C (second compound 0.0316 µM, first compound 0.01 µM): 26.1%; viability, T/C [5]: 8.33%; viability, T/C [6]: 2.99%; viability, T/C [7]: 2.16%; viability, T/C [8]: 0.41%; viability, T/C (second compound 0.1 µM, first compound 0.00316 µM): 37.3%; viability, T/C (second compound 0.1 µM, first compound 0.01 µM): 27.9%; viability, T/C [9]: 9.81%; viability, T/C [10]: 2.85%; viability, T/C [11]: 1.49%; viability, T/C [12]: 0.35%; viability, T/C (second compound 0.316 µM, first compound 0.00316 µM): 31.4%; viability, T/C (second compound 0.316 µM, first compound 0.01 µM): 22.4%; viability, T/C [13]: 9.6%; viability, T/C [14]: 2.64%; viability, T/C [15]: 1.51%; viability, T/C [16]: 0.29%; viability, T/C (second compound 1 µM, first compound 0.00316 µM): 27.5%; viability, T/C (second compound 1 µM, first compound 0.01 µM): 20.3%; viability, T/C [17]: 6.75%; viability, T/C [18]: 3.45%; viability, T/C [19]: 1.17%; viability, T/C [20]: 0.36%
